According to patent EP4574175A1, “PRODRUG FOR ANTI-AGING RELATED DISEASES AND USE METHOD THEREFOR” (BEIJING SUNCELL BIO-MEDICAL CO., LTD., priority 2022, dated 2024):

Legend:
[1] = test system: induced senescent HEF cell; assay: In vitro compound screening, cell viability test (CCK-8); format: cell-based, human; settings: HEF-ETO, Figure 1C
[2] = test system: induced senescent A549 cell; assay: as above; format: cell-based, human; settings: for killing activity on the senescent cells compared with ABT-263: A549-CDDP, Figure 1B; for senescent cell killing activity and selectivity in vitro (screening): induced senescent A549 cell model, Figure 1A
[3] = test system: non-senescent HEF cells; assay: Cell killing activity assay (CCK-8), Example 7; format: cell-based, human; settings: 25 µM
Protocol: (§1) Preparation of the cell plates: The non-senescent, and the induced senescent HEF cells and A549 cells were taken respectively, digested with trypsin, and centrifuged at 1000 rmp for 5 minutes. The supernatants were removed, and the cells were resuspended in fresh DMEM medium containing 10% foetal bovine serum for counting. The cell density was adjusted so that the density of the non-senescent cells was at 4000 cells/100 µL and the density of the senescent cells was at 7000 cells/100 µL. The cell suspension was added to the 96-well transparent cell culture plates at 100 µL per well. Note that the edge wells of the 96-well plate were not used for the test wells, and 300 µL PBS is added separately to reduce the medium evaporation. The cell-spread 96-well plates were put back into the incubator at 37°C for the overnight incubation until the cells adhered to the wall.
(§2) Formulation of the drug concentration gradients: After the cells adhered to the wall on the second day, the small molecule compounds (d-12, d-11, and d-4) to be tested for activity are ready to be added. […] 3 parallel replicate wells were set up for each test drug concentration. The 96-well plate was put back into the incubator at 37°C, and the cell survival was tested after three days.
(§3) Detection of the cell survival after the drug treatment using the CCK-8 method: Three days after the addition of the drug, the well plate was removed, the supernatant was discarded, and 100 µL of the pre-prepared CCK-8 working solution was added to each well. The CCK-8 working solution was obtained by diluting the CCK8 stock solution (C0041, Beyotime) with the serum-free DMEM medium in 10-fold volume. The 96-well plate added with the CCK-8 working solution was put back to the incubator at 37°C and incubated for 0.5-2 hours. The plate was taken out to determine the absorbance value (OD value) of each well at the wavelength of 450 nm. The cell viability in each experimental group was calculated. The following formula was used: the relative cell viability (%) = […] x 100 %.

[4] = test system: non-senescent A549 cells; assay: Cell killing activity assay (CCK-8), Example 7; format: cell-based, human; settings: 25 µM
Protocol: as §1, §2, §3

[5] = test system: senescent HEF cells; assay: Cell killing activity assay (CCK-8), Example 7; format: cell-based, human; settings: HEF-induced senescence cell model, up to 25 µM, three days
Protocol: as §1, §2, §3

[6] = test system: senescent A549 cells; assay: Cell killing activity assay (CCK-8), Example 7; format: cell-based, human; settings: three days; for selective killing of the senescent cells: A549-induced senescence cell model, up to 25 µM
Protocol: as §1, §2, §3

[7] = test system: mouse model of Bleomycin-induced pulmonary fibrosis; assay: Bleomycin-induced pulmonary fibrosis mouse model; format: in vivo, C57 mice; settings: A13 2 mg/kg
Protocol: (§4) All drugs were mixed in 85% physiological saline, 5% DMSO (Sigma, D8418) and 10% Solutol HS 15 (Sigma, 42966), and administered to mice by intraperitoneal (i.p.) injection. To treat the bleomycin-injured young mice, A13 (2 mg/kg), A13bGa1 (5 mg/kg), or an empty vehicle control was administered three consecutive days per week for four weeks. A1331852 (abbreviated as A13) was purchased from MCE.
Bleomycin was purchased from Selleck. […]. Drug treatment was initiated four days after modelling, and the drug was administered three consecutive days per week for four consecutive weeks, after which the mice were executed for material collection.
All animals (including those found dead, dying, and euthanised) were autopsied, and the lung tissues were preserved. The lungs were separated, the fat and other tissues were removed, the surface fluid was absorbed using a filter paper, and the whole lungs were weighed (those found dead, dying, and euthanised) for calculation of the lung weight index. The right lung and bronchiole were fixed in 10% neutral buffered formalin solution, embedded in paraffin, sectioned, prepared into slices, and stained with HE for a histopathological and morphological observation of the lung. The degree of the lesions such as the inflammatory cell infiltration in the lung tissue were graded according to a 4-grade classification (slight, mild, moderate, severe) using a standard terminology for diagnosis and classification. The left lung tissue was clipped and stored temporarily below -60°C. Lung weight index(%) = lung weight/body weight × 100%. [formula]
Masson trichrome stain kit (Solarbio, G1340) was used to detect fibrosis in the lung tissue. The formalin-fixed, and paraffin-embedded lung sections were dewaxed with xylene, and then rehydrated with 100% alcohol, 95% alcohol and distilled water. The sections were then stained according to the manufacturer's instructions. Afterwards, the sections were rapidly dehydrated with 95% alcohol and 100% alcohol, cleaned with xylene and covered with the coverslips. […]

[8] = test system: platelets; assay: In vivo platelet toxicity test; design: species or system C57 mice; settings: multiple rounds i.p.
Protocol: as §4
(§5) A single administration of A13 or A13bG was performed. Female 5-6 week old C57 mice were treated with a single intraperitoneal injection. A13 and A13bG were administered in three different dose groups of 2, 5, and 20 mg/kg. Approximately 50 µl of blood was collected from each mouse at different time points into the EDTA tubes (RAM Scientific) by means of inner canthal blood extraction, and analyzed using a haematology analyzer for a blood routine examination and a platelet counting. Multiple administrations of A13 or A13bG were performed. Female 5-6 week old C57 mice were treated with multiple intraperitoneal injections. A13 and A13bG were administered in three different dose groups of 2, 5 and 20 mg/kg, three consecutive days per week, followed by a 4-day withdrawal for 3 weeks. The time points of administration were in the afternoon of days 0, 1, 2, 7, 8, 9, 14, 15, and 16, and the time points of blood collection and testing were in the morning of days 1, 3, 5, 8, 10, 12, 15, 17, and 19, respectively.
For a blood routine examination, 50 µl of fresh blood was collected from each mouse and immediately mixed with EDTA. Blood samples were analyzed by Celltac Alpha MEK-6400 series haematology analyzer (Nihon Kohden, MEK-6400). Data were expressed as the number of different blood cells or platelets per µl of blood. For the serum biochemical analysis, the blood samples were collected, coagulated for 2 hours at room temperature or overnight at 4°C, and then centrifuged (1000 g, 10 minutes) to obtain serum. A 200 µl of serum was aliquoted and analyzed for alanine aminotransferase (ALT), aspartate aminotransferase (AST), uric acid (UA), and creatinine (CREA) by a chemistry analyzer (Mindray, BS-350E).

[9] = Daily observation of mice during multiple administration; format: in vivo, C57 mice; settings: after 3 consecutive rounds of administration
Protocol: as §5

[10] = lung HE, number of animals of 6, A13bGa1 5 mg/kg
[11] = number of animals of 6, A13bGa1 5 mg/kg

CN(C)CC#Cc1ccc(OCCCc2sc(N3CCc4cccc(C(=O)Nc5nc6ccccc6s5)c4C3)nc2C(=O)O)c(F)c1 [A1155463]
killing activity on the senescent cells compared with ABT-263 [1]: higher than that of the classical small molecule inhibitor ABT-263 | killing activity on the senescent cells compared with ABT-263 [2]: higher than that of the classical small molecule inhibitor ABT-263 | senescent cell killing activity and selectivity in vitro (screening) [2]: good senescent cell killing activity and selectivity in vitro

CC(=O)OC[C@H]1O[C@@H](Oc2ccc(C(Cc3cn(CCCN4CCOCC4)nn3)OC(=O)c3nc(N4CCc5cccc(C(=O)Nc6nc7ccccc7s6)c5C4)ccc3-c3cnn(CC45CC6CC(CC(C6)C4)C5)c3C)cc2[N+](=O)[O-])[C@H](OC(C)=O)[C@@H](OC(C)=O)[C@H]1OC(C)=O (stereo partly drawn) [d-11]
killing of the non-senescent cells at the highest concentration [3]: none of the three molecules killed the non-senescent cells | killing of the non-senescent cells at the highest concentration [4]: none of the three molecules killed the non-senescent cells | selective killing of the senescent cells [5]: selective killing of the senescent cells | selective killing of the senescent cells [6]: selective killing of the senescent cells

Cc1c(-c2ccc(N3CCc4cccc(C(=O)Nc5nc6ccccc6s5)c4C3)nc2C(=O)O)cnn1CC12CC3CC(CC(C3)C1)C2 [A13, 3-[1-(adamantan-1-ylmethyl)-5-methylpyrazol-4-yl]-6-{8-[(1,3-benzothiazol-2-yl)carbamoyl]-3,4-dihydro-1H-isoquinolin-2-yl}pyridine-2-carboxylic acid]
killing activity on the senescent cells compared with ABT-263 [1]: higher than that of the classical small molecule inhibitor ABT-263 | pathological manifestations of the pulmonary fibrosis (Masson staining) ([7]; A13bGa1 5 mg/kg i.p.): not improved | lung index ([7]; A13bGa1 5 mg/kg i.p., 3 consecutive days per week for 4 weeks): no improvement | inflammation and consolidation of the mouse lungs (pathological sections) ([7]; A13bGa1 5 mg/kg i.p., HE staining): no improvement was observed | Bleeding, alveolar/interstitial: mild (++) [7, 10]: 2 | Bleeding, alveolar/interstitial: moderate (+++) [7, 10]: 0 | Bleeding, alveolar/interstitial: negative (-) [7, 10]: 2 | Bleeding, alveolar/interstitial: slight (+) [7, 10]: 2 | Exudative oedema, alveolar: mild (++) [7, 10]: 1 | Exudative oedema, alveolar: moderate (+++) [7, 10]: 1 | Exudative oedema, alveolar: negative (-) [7, 10]: 0 | Exudative oedema, alveolar: severe (++++) [7, 10]: 3 | Exudative oedema, alveolar: slight (+) [7, 10]: 1 | The infiltration of the inflammatory cells: mild (++) [7, 10]: 2 | The infiltration of the inflammatory cells: moderate (+++) [7, 10]: 1 | The infiltration of the inflammatory cells: negative (-) [7, 10]: 1 | The infiltration of the inflammatory cells: slight (+) [7, 10]: 2 | Thickening and consolidation of the pulmonary septum: mild (++) [7, 10]: 2 | Thickening and consolidation of the pulmonary septum: moderate (+++) [7, 10]: 1 | Thickening and consolidation of the pulmonary septum: negative (-) [7, 10]: 0 | Thickening and consolidation of the pulmonary septum: severe (++++) [7, 10]: 2 | Thickening and consolidation of the pulmonary septum: slight (+) [7, 10]: 1 | degree of fibrosis in the lungs using Masson staining: Moderately strong positive (+++) [7, 11]: 1 | degree of fibrosis in the lungs using Masson staining: extremely strong positive (++++) [7, 11]: 2 | degree of fibrosis in the lungs using Masson staining: moderately positive (++) [7, 11]: 1 | degree of fibrosis in the lungs using Masson staining: not positive (-) [7, 11]: 0 | degree of fibrosis in the lungs using Masson staining: weakly positive (+) [7, 11]: 2 | killing activity on the senescent cells compared with ABT-263 [2]: higher than that of the classical small molecule inhibitor ABT-263 | senescent cell killing activity and selectivity in vitro (screening) [2]: good senescent cell killing activity and selectivity in vitro | toxic effects on the platelets ([8]; 3 consecutive days per week for 3 weeks, 2 mg/kg): very serious toxic effects on the platelets | toxic effects on the platelets ([8]; 3 consecutive days per week for 3 weeks, 2, 5 and 20 mg/kg): strong destructive effects on the platelets | mice depilated, dispirited and in poor state ([9]; 5 mg/kg i.p.): 2/4 | mice depilated, dispirited and in poor state ([9]; 20 mg/kg i.p.): 2/4

Cc1sc2c(c1C)C(c1ccc(Cl)cc1)=N[C@@H](CC(=O)NCCCCCCCCNC(=O)COc1cccc3c1C(=O)N(C1CCC(=O)NC1=O)C3=O)c1nnc(C)n1-2 (stereo partly drawn) [dBET6]
senescent cell killing activity and selectivity in vitro (screening) [2]: better in vitro killing activity

Cc1sc2c(c1C)C(c1ccc(Cl)cc1)=N[C@@H](CC(=O)Nc1ccc(OCCOCCOCCOCCNc3cccc4c3C(=O)N(C3CCC(=O)NC3=O)C4=O)cc1)c1nnc(C)n1-2 (stereo partly drawn) [ARV825]
senescent cell killing activity and selectivity in vitro (screening) [2]: better in vitro killing activity

Cc1c(-c2ccc(N3CCc4cccc(C(=O)Nc5nc6ccccc6s5)c4C3)nc2C(=O)OC(Cc2cn(CCCN3CCOCC3)nn2)c2ccc(O[C@@H]3O[C@H](CO)[C@H](O)[C@H](O)[C@H]3O)c([N+](=O)[O-])c2)cnn1CC12CC3CC(CC(C3)C1)C2 (stereo partly drawn) [d-12]
killing of the non-senescent cells at the highest concentration [3]: none of the three molecules killed the non-senescent cells | killing of the non-senescent cells at the highest concentration [4]: none of the three molecules killed the non-senescent cells | selective killing of the senescent cells [5]: selective killing of the senescent cells | selective killing of the senescent cells [6]: selective killing of the senescent cells | IC50 ([6]; Cisplatin-induced senescent A549 cells, CCK-8): ~6.9 µM

Cc1ncsc1-c1ccc(CNC(=O)[C@@H]2C[C@@H](O)CN2C(=O)[C@@H](NC(=O)COCCOCCOCCNC(=O)C[C@@H]2N=C(c3ccc(Cl)cc3)c3c(sc(C)c3C)-n3c(C)nnc32)C(C)(C)C)cc1 [MZ1]
senescent cell killing activity and selectivity in vitro (screening) [2]: better in vitro killing activity
